From patent US20260250290A1 (BRISTOL-MYERS SQUIBB COMPANY, priority 2023, published 2026)
Structures can show the parent of a compound that is named as a salt.

The compounds below were run against T1, full length SGK1 (Homo sapiens, UniProt O00141) (assay: SGK1 inhibition Assay A (Caliper LabChip electrophoretic separation of fluorescent peptide substrate and phosphorylated product)). Details: Assay A; 20 μM ATP, 40 min incubation; read-out: SGK1 IC50.
T1 construct: 125 μM full length SGK1 (Life Technologies Part #PR7358A); purchased Life Technologies PR7358A
T1 sequence (O00141 1-431): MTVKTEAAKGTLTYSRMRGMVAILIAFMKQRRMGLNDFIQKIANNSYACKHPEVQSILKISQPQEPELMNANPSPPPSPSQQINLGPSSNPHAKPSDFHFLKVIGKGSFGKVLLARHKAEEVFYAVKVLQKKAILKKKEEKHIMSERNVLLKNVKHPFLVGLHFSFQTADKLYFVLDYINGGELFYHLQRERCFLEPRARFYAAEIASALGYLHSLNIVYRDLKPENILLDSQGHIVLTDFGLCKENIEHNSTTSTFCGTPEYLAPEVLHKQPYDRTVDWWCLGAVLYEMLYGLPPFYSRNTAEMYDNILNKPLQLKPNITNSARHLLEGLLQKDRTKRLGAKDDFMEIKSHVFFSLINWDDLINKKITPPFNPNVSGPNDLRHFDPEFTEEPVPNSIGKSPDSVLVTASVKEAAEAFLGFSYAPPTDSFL
Type: biochemical

Row | IC50 | Compound
1 | 0.008 µM | COC(=O)N1CC=C(c2cc(N3CCC[C@@H](NC(=O)c4sc(Cl)cc4OCCN4CCS(=O)(=O)CC4)C3)c3c(N)ncnn23)C1 [Example 291, Methyl (R)-3-(4-amino-5-(3-(5-chloro-3-(2-(1,1-dioxidothiomorpholino)ethoxy)thiophene-2-carboxamido)piperidin-1-yl)pyrrolo[2,1-f] [1,2,4]triazin-7-yl)-2,5-dihydro-1H-pyrrole-1-carboxylate]
2 | 0.013 µM | CC(=O)N1CC=C(c2cc(N3CCC[C@@H](NC(=O)c4cc(C5CC5)[nH]n4)C3)c3c(N)ncnn23)C1 [Example 747]
3 | 0.053 µM | CC(=O)N1CC=C(c2cc(N3CCC[C@@H](NC(=O)c4cc(-c5ccccc5)ncn4)C3)c3c(N)ncnn23)C1 [Example 492, (R)-N-(1-(7-(1-acetyl-2,5-dihydro-1H-pyrrol-3-yl)-4-aminopyrrolo[2,1-f][1,2,4]triazin-5-yl)piperidin-3-yl)-6-phenylpyrimidine-4-carboxamide]
4 | 0.003 µM | CC(=O)N1CC=C(c2cc(N3CCC[C@@H](NC(=O)c4sc(Cl)cc4OC4CCN(C)CC4F)C3)c3c(N)ncnn23)C1 (stereo partly drawn) [Example 605, N-((R)-1-(7-(1-acetyl-2,5-dihydro-1H-pyrrol-3-yl)-4-aminopyrrolo[2,1-f][1,2,4]triazin-5-yl)piperidin-3-y1)-5-chloro-3-((3-fluoro-1-methylpiperidin-4-yl)oxy)thiophene-2-carboxamide]
5 | 0.068 µM | CC(=O)N1CC=C(c2cc(N3CCC[C@@H](NC(=O)c4ccnc(OCCN5CCOCC5)c4)C3)c3c(N)ncnn23)C1 [Example 707, (R)-N-(1-(7-(1-acetyl-2,5-dihydro-1H-pyrrol-3-yl)-4-aminopyrrolo[2,1-f][1,2,4]triazin-5-yl)piperidin-3-yl)-2-(2-morpholinoethoxy) isonicotinamide]
6 | 0.069 µM | CS(=O)(=O)c1ccc(-c2cc(N3CCC[C@@H](NC(=O)c4cccnc4)C3)c3c(N)ncnn23)cc1 [Example 50, (R)-N-(1-(4-amino-7-(4-(methylsulfonyl)phenyl)pyrrolo [2,1-f][1,2,4]triazin-5-yl)piperidin-3-yl)nicotinamide, TFA]
7 | 0.049 µM | CC(=O)N1CC=C(c2cc(N3CCC[C@@H](NC(=O)c4cc(N5CCN(C)CC5)c(C)s4)C3)c3c(N)ncnn23)C1 [Example 270, (R)—N-(1-(7-(1-acetyl-2,5-dihydro-1H-pyrrol-3-yl)-4-aminopyrrolo[2,1-f][1,2,4]triazin-5-yl)piperidin-3-yl)-5-methyl-4-(4-methylpiperazin-1-yl)thiophene-2-carboxamide]
8 | 0.002 µM | Nc1ncnn2c(-c3ccnc(C(F)F)c3)cc(N3CCC[C@@H](NC(=O)c4sc(Cl)cc4OC4CCNCC4)C3)c12 [Example 588, (R)-N-(1-(4-amino-7-(2(difluoromethyl)pyridin-4-yl)pyrrolo[2,1-f][1,2,4]triazin-5-yl)piperidin-3-yl)-5-chloro-3-(piperidin-4-yloxy)thiophene-2-carboxamide]
9 | 0.019 µM | CN1CC=C(c2cc(C(F)F)sc2C(=O)N[C@@H]2CCCN(c3cc(-c4ccc(C(N)=O)c(F)c4)n4ncnc(N)c34)C2)CC1 [Example 323, (R)—N-(1-(4-amino-7-(4-carbamoyl-3-fluorophenyl)pyrrolo[2,1-f][1,2,4]triazin-5-yl)piperidin-3-yl)-5-(difluoromethyl)-3-(1-yl)-5-(difluoromethyl)-3-(1-methyl-1,2,3,6-tetrahydropyridin-4-yl)thiophene-2-carboxamide]
10 | 0.019 µM | Nc1ncnn2c(-c3ccnc(F)c3)cc(N3CCC[C@@H](NC(=O)c4ccc(Cl)s4)C3)c12 [Example 130, N-[(3R)-1-[4-amino-7-(2-fluoropyridin-4-yl)pyrrolo[2,1-f][1,2,4]triazin-5-yl]piperidin-3-yl]-5-chlorothiophene-2-carboxamide]
11 | 0.196 µM | CC(C)Cn1cc(-c2cc(N3CCC[C@@H](NC(=O)c4[nH]c5ccccc5c4OCCN(C)C)C3)c3c(N)ncnn23)ccc1=O [Example 369, (R)-N-(1-(4-amino-7-(1-isobutyl-6-oxo-1,6-dihydropyridin-3-yl)pyrrolo[2,1-f][1,2,4]triazin-5-yl)piperidin-3-yl)-3-(2-(dimethylamino)ethoxy)-1H-indole-2-carboxamide]
12 | 0.276 µM | N#Cc1ccc2[nH]nc(C(=O)N[C@@H]3CCCN(c4cc(-c5cncnc5)n5ncnc(N)c45)C3)c2c1 [Example 685, (R)—N-(1-(4-amino-7-(pyrimidin-5-yl)pyrrolo[2,1-f][1,2,4]triazin-5-yl)piperidin-3-yl)-5-cyano-1H-indazole-3-carboxamide]
13 | 0.115 µM | CC(=O)N1CC=C(c2cc(N3CCC[C@@H](NC(=O)c4ccn(C)n4)C3)c3c(N)ncnn23)C1 [Example 738, (R)-N-(1-(7-(1-acetyl-2,5-dihydro-1H-pyrrol-3-yl)-4-aminopyrrolo[2,1-f][1,2,4]triazin-5-yl)piperidin-3-yl)-1-methyl-1H-pyrazole-3-carboxamide]
14 | 0.161 µM | Nc1ncnn2c(-c3cncnc3)cc(N3CCC[C@@H](NC(=O)c4sc5ccc(F)cc5c4OC4CCNCC4)C3)c12 [Example 688, (R)—N-(1-(4-amino-7-(pyrimidin-5-yl)pyrrolo[2,1-f][1,2,4]triazin-5-yl)piperidin-3-yl)-5-fluoro-3-(piperidin-4-yloxy)benzo[b]thiophene-2-carboxamide]
15 | 0.01 µM | CC(=O)N1CC=C(c2cc(N3CCC[C@@H](NC(=O)c4sc(Cl)cc4OC4CCCN(C)C4)C3)c3c(N)ncnn23)C1 (some centres unmarked) [Example 597]
16 | 0.01 µM | Cc1cc(-c2cc(N3CCC[C@@H](NC(=O)c4sc(Cl)cc4OCCN(C)C)C3)c3c(N)ncnn23)cc(C(F)F)n1 [Example 277, (R)-N-(1-(4-amino-7-(2-(difluoromethyl)-6-methylpyridin-4-yl)pyrrolo[2,1-f][1,2,4]triazin-5-yl)piperidin-3-yl)-5-chloro-3-(2-(dimethylamino)ethoxy) thiophene-2-carboxamide]
17 | 0.003 µM | COC(=O)N1CC=C(c2cc(N3CCC[C@@H](NC(=O)c4sc(Cl)cc4OC4CCNC4)C3)c3c(N)ncnn23)C1 (stereo partly drawn) [Example 569, Methyl 3-(4-amino-5-((3R)-3-(5-chloro-3-(pyrrolidin-3-yloxy)thiophene-2-carboxamido)piperidin-1-yl)pyrrolo[2,1-f][1,2,4]triazin-7-yl)-2,5-dihydro-1H-pyrrole-1-carboxylate]
18 | 0.003 µM | CN(C)CCOc1cc(Cl)sc1C(=O)N[C@@H]1CCCN(c2cc(C3=CCN(C(=O)c4ncco4)C3)n3ncnc(N)c23)C1 [Example 908, (R)-N-(1-(4-amino-7-(1-(oxazole-2-carbonyl)-2,5-dihydro-1H-pyrrol-3-yl)pyrrolo[2,1-f][1,2,4]triazin-5-yl)piperidin-3-y1)-5-chloro-3-(2-(dimethylamino)ethoxy)thiophene-2-carboxamide]
19 | 0.002 µM | Nc1ncnn2c(-c3ccc(=O)n(C(F)F)c3)cc(N3CCC[C@@H](NC(=O)c4ccc(Cl)s4)C3)c12 [Example 537, (R)-N-(1-(4-amino-7-(1-(difluoromethyl)-6-oxo-1,6-dihydropyridin-3-yl)pyrrolo[2,1-f][1,2,4]triazin-5-yl)piperidin-3-yl)-5-chlorothiophene-2-carboxamide]
20 | 0.835 µM | C[C@@]1(NC(=O)c2ccc(Cl)s2)CCCN(c2cc(-c3ccc(S(C)(=O)=O)cc3)n3ncnc(N)c23)C1 [Example 146, (R)—N-(1-(4-amino-7-(4-(methylsulfonyl)phenyl)pyrrolo[2,1-f][1,2,4]triazin-5-yl)-3-methylpiperidin-3-yl)-5-chlorothiophene-2-carboxamide, TFA]
